According to PMC5733478, “A Non-imaging High Throughput Approach to Chemical Library Screening at the Unmodified Adenosine-A3 Receptor in Living Cells” (Frontiers in Pharmacology, 2017):
Where a name gives a salt, the structure may show the parent alone. Read-outs that look alike come from different tables or passages of the source.

Target: T1, human A3AR (Homo sapiens, UniProt P0DMS8)
T1 construct: expressed in transfected cells
T1 sequence (P0DMS8 1-318): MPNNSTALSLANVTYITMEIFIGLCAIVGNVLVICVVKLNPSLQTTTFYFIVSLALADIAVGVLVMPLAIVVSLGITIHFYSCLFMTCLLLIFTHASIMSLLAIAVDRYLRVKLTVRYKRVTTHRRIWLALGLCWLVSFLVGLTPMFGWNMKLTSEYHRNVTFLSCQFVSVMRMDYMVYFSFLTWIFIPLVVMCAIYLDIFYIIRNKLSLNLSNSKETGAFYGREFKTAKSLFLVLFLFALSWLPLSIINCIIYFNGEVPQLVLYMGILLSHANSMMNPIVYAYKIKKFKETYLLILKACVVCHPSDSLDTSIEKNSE
Assay: LOPAC library primary screen: single concentration (10 μM) inhibition of 25 nM CA200645 binding, PHERAstar FS

[1] = % of control wells (1% DMSO and 25 nM CA200645), compounds at 10 µM, whole live cells expressing the A3AR, mean ± SD, three experiments in duplicate

## NC(CO)C(=O)NNCc1ccc(O)c(O)c1O (stereo not drawn) [Benserazide hydrochloride]
  % 25 nM CA200645 binding: 98.9 ± 5.3%

## O=C1NC(=O)/C(=C/c2ccc3c(c2)OC(F)(F)O3)S1 [AS 604850]
  % 25 nM CA200645 binding: 58.3 ± 11.4%

## Cc1c2ccncc2c(C)c2c1[nH]c1ccccc12 [Ellipticine]
  % 25 nM CA200645 binding: 78.2 ± 23.8%

## Br.COc1ccc2c(c1)[C@]13CCCC[C@@H]1[C@H](C2)N(C)CC3.O
  % 25 nM CA200645 binding: 102.0 ± 12.4%

## Cn1c(=O)c2[nH]c(-c3ccccc3)nc2n(C)c1=O [1,3-Dimethyl-8-phenylxanthine]
  % 25 nM CA200645 binding: 91.8 ± 4.8%

## Nc1ccncc1 [4-Aminopyridine]
  % 25 nM CA200645 binding: 93.6 ± 7.2%

## C[N+]1(C)CCC(OC(=O)C(c2ccccc2)c2ccccc2)CC1.[I-] [4-DAMP methiodide]
  % 25 nM CA200645 binding: 84.9 ± 19.8%

## O=C(C1CCCCC1)N1CC(=O)N2CCc3ccccc3C2C1 (stereo not drawn) [Praziquantel]
  % 25 nM CA200645 binding: 100.5 ± 15.0%

## NC(=O)c1cnccn1 [Pyrazinecarboxamide]
  % 25 nM CA200645 binding: 88.9 ± 26.1%

## Cc1ccc([N+](=O)[O-])cc1S(=O)(=O)N(C)C [BRL 50481]
  % 25 nM CA200645 binding: 82.8 ± 17.4%

## Cc1cc(Cl)ccc1OCCCC(=O)NO [Droxinostat]
  % 25 nM CA200645 binding: 96.3 ± 1.9%

## CC(C)(C)NCC(O)c1cc(O)cc(O)c1.CC(C)(C)NCC(O)c1cc(O)cc(O)c1.O=S(=O)(O)O (stereo not drawn) [Terbutaline hemisulfate]
  % 25 nM CA200645 binding: 102.8 ± 10.1%

## Cl.O=C(c1ccc(OCCCc2cnc[nH]2)cc1)C1CC1 [Ciproxifan hydrochloride]
  % 25 nM CA200645 binding: 102.4 ± 6.2%

## NC(=O)c1ccccc1 [Benzamide]
  % 25 nM CA200645 binding: 99.1 ± 4.7%

## CC(=O)NC[C@H]1CN(c2ccc(N3CCOCC3)c(F)c2)C(=O)O1 [Linezolid]
  % 25 nM CA200645 binding: 100.5 ± 2.1%

## NC[C@H](O)c1ccc(O)c(O)c1.O=C(O)C(O)C(O)C(=O)O [L(-)-Norepinephrine bitartrate]
  % 25 nM CA200645 binding: 97.7 ± 6.2%

## C#C[C@]1(O)CC[C@H]2[C@@H]3CCC4=Cc5oncc5C[C@]4(C)[C@H]3CC[C@@]21C [Danazol]
  % 25 nM CA200645 binding: 86.4 ± 9.1%

## O=c1c(O)c(-c2ccc(O)cc2O)oc2cc(O)cc(O)c12 [Morin]
  % 25 nM CA200645 binding: 72.1 ± 9.6%

## COc1ccc2[n-]c([S@@+]([O-])Cc3ncc(C)c(OC)c3C)nc2c1.COc1ccc2[n-]c([S@@+]([O-])Cc3ncc(C)c(OC)c3C)nc2c1.O.O.[Mg+2] [Esomeprazole magnesium dihydrate]
  % 25 nM CA200645 binding: 81.5 ± 16.8%

## NCCCCCC(=O)O [6-Aminohexanoic acid]
  % 25 nM CA200645 binding: 109.0 ± 9.6%

## CC(=O)S[C@@H]1CC2=CC(=O)CC[C@]2(C)[C@H]2CC[C@@]3(C)[C@@H](CC[C@@]34CCC(=O)O4)[C@H]12 [Spironolactone]
  % 25 nM CA200645 binding: 94.5 ± 9.9%

## O=C(O)/C=C/C(=O)O.O=C(O)/C=C/C(=O)O.O=C(O)/C=C/C(=O)O.O=C1CCCN1CC#CCN1CCCC1.O=C1CCCN1CC#CCN1CCCC1 [Oxotremorine sesquifumarate salt]
  % 25 nM CA200645 binding: 101.9 ± 13.3%

## C[C@H](N)CN1CCc2ccc(Br)cc21.C[C@H](N)CN1CCc2ccc(Br)cc21.O=C(O)/C=C/C(=O)O [VER-3323 hemifumarate salt]
  % 25 nM CA200645 binding: 107.7 ± 7.9%

## CCCCN(CCCC)CC(O)c1cc(Cl)cc2c1-c1ccc(Cl)cc1/C2=C/c1ccc(Cl)cc1 (stereo not drawn) [Lumefantrine]
Compounds tested at 10 µM, % of control wells (1% DMSO and 25 nM CA200645), whole live cells expressing the A3AR, mean ± SD, three experiments in duplicate
  % 25 nM CA200645 binding: 94.4 ± 10.9%

## O=C(O)Cc1ccccc1Nc1c(Cl)cccc1Cl [Diclofenac sodium]
  % 25 nM CA200645 binding: 100.0 ± 12.4%

## CNCCNS(=O)(=O)c1cccc2cnccc12.Cl.Cl [H-8 dihydrochloride]
  % 25 nM CA200645 binding: 106.4 ± 6.7%

## Cc1[nH]c(=O)c(C#N)cc1-c1ccncc1 [Milrinone]
  % 25 nM CA200645 binding: 97.0 ± 4.9%

## CC(N)Cc1c[nH]c2ccc(O)cc12.O=C(O)/C=C\C(=O)O (stereo not drawn) [alpha-Methyl-5-hydroxytryptamine maleate]
  % 25 nM CA200645 binding: 115.5 ± 12.2%

## CC(C)c1cccc(C(C)C)c1N1C(=O)c2ccc(O)cc2C1=O [5HPP-33]
  % 25 nM CA200645 binding: 91.1 ± 9.2%

## CN(C)[C@@H]1C(O)=C(C(N)=O)C(=O)[C@@]2(O)C(O)=C3C(=O)c4c(O)ccc(Cl)c4[C@@H](O)[C@H]3C[C@@H]12 [Demeclocycline hydrochloride]
  % 25 nM CA200645 binding: 98.1 ± 10.5%

## CC(C)COCC(CN(Cc1ccccc1)c1ccccc1)N1CCCC1 (stereo not drawn) [Bepridil hydrochloride]
  % 25 nM CA200645 binding: 101.8 ± 6.3%

## CCCCCCCC/C=C\CCCCCCCC(=O)NCCc1ccc(O)c(O)c1 [N-Oleoyldopamine]
  % 25 nM CA200645 binding: 53.5 ± 8.3%

## CCT007093
  % 25 nM CA200645 binding: 68.4 ± 3.4%

## Cc1cccc(C)c1NC(=O)C(C)N (stereo not drawn) [Tocainide hydrochloride]
  % 25 nM CA200645 binding: 102.0 ± 15.0%

## Cn1cnc([N+](=O)[O-])c1Sc1ncnc2nc[nH]c12 [Azathioprine]
  % 25 nM CA200645 binding: 93.9 ± 5.0%

## Cc1ncsc1CCCl.Cl [Chlormethiazole hydrochloride]
  % 25 nM CA200645 binding: 84.7 ± 21.7%

## CN(C)CCC=C1c2ccccc2CCc2ccccc21 [Amitriptyline hydrochloride]
  % 25 nM CA200645 binding: 83.6 ± 19.8%

## NC12CC3CC(CC(C3)C1)C2 [Amantadine hydrochloride]
  % 25 nM CA200645 binding: 104.6 ± 3.5%

## COc1nc(C)nc(Cl)c1NC1=NCCN1.Cl [Moxonidine hydrochloride]
  % 25 nM CA200645 binding: 99.1 ± 3.2%

## CNCCc1c[nH]c2ccc(O)cc12.O=C(O)C(=O)O
  % 25 nM CA200645 binding: 111.6 ± 33.8%

## Cc1ccc(S(=O)(=O)N[C@@H](Cc2ccccc2)C(=O)CCl)cc1
  % 25 nM CA200645 binding: 102.0 ± 13.7%

## Nc1nc2[nH]c(=O)cnc2c(=O)[nH]1 [Isoxanthopterin]
  % 25 nM CA200645 binding: 94.7 ± 15.0%

## CC(C)(Oc1ccc(C2CC2(Cl)Cl)cc1)C(=O)O (stereo not drawn) [Ciprofibrate]
  % 25 nM CA200645 binding: 98.7 ± 5.2%

## Oc1cccc2c(O)nccc12 [1,5-Isoquinolinediol]
  % 25 nM CA200645 binding: 97.2 ± 4.1%

## N=C(N)c1ccc(OCCCCCOc2ccc(C(=N)N)cc2)cc1 [Pentamidine isethionate]
  % 25 nM CA200645 binding: 100.3 ± 6.3%

## NC(=O)c1ccc2[nH]ccc2c1 [SD-169]
  % 25 nM CA200645 binding: 96.7 ± 5.5%

## C[C@H]1CCC/C=C/[C@@H]2C[C@H](O)C[C@H]2[C@H](O)/C=C/C(=O)O1
  % 25 nM CA200645 binding: 87.5 ± 5.2%

## Ro 41-0960
  % 25 nM CA200645 binding: 98.8 ± 6.8%

## CC(=O)Oc1ccccc1C(=O)O [Acetylsalicylic acid]
  % 25 nM CA200645 binding: 102.5 ± 9.1%

## Oc1ccc(/C=C/c2cc(O)cc(O)c2)cc1 [Resveratrol]
[1]
  % 25 nM CA200645 binding: 100.3 ± 16.3%

## CC1=NN=C(c2ccc(N)cc2)c2cc3c(cc2C1)OCO3.Cl [GYKI 52466 hydrochloride]
  % 25 nM CA200645 binding: 78.2 ± 10.4%

## O=c1c2ccccc2nc2n1CCc1c-2[nH]c2ccccc12 [Rutaecarpine]
  % 25 nM CA200645 binding: 34.3 ± 2.1%

## CCCCCN(CCCCC)C(=O)C(CCC(=O)O)NC(=O)c1ccc(Cl)c(Cl)c1 (stereo not drawn) [Lorglumide sodium]
[1]
  % 25 nM CA200645 binding: 99.4 ± 5.5%

## Br.NCc1cc(O)no1 [Muscimol hydrobromide]
  % 25 nM CA200645 binding: 107.5 ± 2.4%

## COc1ccc(/C=C2\COc3ccc(C)cc3C2=O)cc1O [IMS2186]
  % 25 nM CA200645 binding: 95.7 ± 10.2%

## COc1ccc2[nH]cc(CCNC(C)=O)c2c1 [Melatonin]
  % 25 nM CA200645 binding: 106.6 ± 11.6%

## CC(CCc1ccc(O)cc1)NCCc1ccc(O)c(O)c1 (stereo not drawn) [Dobutamine hydrochloride]
  % 25 nM CA200645 binding: 101.9 ± 15.9%

## CC(C)C[C@H](NC(=O)[C@H](O)[C@H](N)Cc1ccccc1)C(=O)O [Epibestatin hydrochloride]
  % 25 nM CA200645 binding: 102.9 ± 13.0%

## CO/N=C(\C(=O)N[C@@H]1C(=O)N2C(C(=O)O)=C(CSc3nc(=O)c(=O)[nH]n3C)CS[C@H]12)c1csc(N)n1 [Ceftriaxone sodium]
  % 25 nM CA200645 binding: 100.5 ± 11.9%

## OCCN1CCN(CCCN2c3ccccc3Sc3ccc(C(F)(F)F)cc32)CC1 [Fluphenazine dihydrochloride]
  % 25 nM CA200645 binding: 98.1 ± 12.0%

## Cc1ccc(S(=O)(=O)O)cc1.NC[C@H]1O[C@@H](n2cnc3c(N)ncnc32)[C@H](O)[C@@H]1O
  % 25 nM CA200645 binding: 85.5 ± 26.7%

## NC(Cc1ccc(Cl)cc1)C(=O)O (racemic) [(±)-p-Chlorophenylalanine]
  % 25 nM CA200645 binding: 94.9 ± 9.4%

## CN1CCN(c2nc3cc(C(F)(F)F)ccc3n3cccc23)CC1.O=C(O)/C=C\C(=O)O [CGS-12066A maleate]
  % 25 nM CA200645 binding: 97.3 ± 10.3%

## C[C@@H](N)Cc1cnc[nH]1.Cl.Cl
  % 25 nM CA200645 binding: 98.7 ± 8.4%

## COc1ccc(C(=O)N2CCCC2=O)cc1 [Aniracetam]
  % 25 nM CA200645 binding: 95.9 ± 3.1%

## NCCc1c[nH]cn1 [Histamine dihydrochloride]
  % 25 nM CA200645 binding: 102.0 ± 10.2%
